Measurements from ChEMBL document CHEMBL3046185, “Antifeedant activity of neo-clerodane diterpenoids from Teucrium arduini” (2002).

Tested on: Spodoptera littoralis
Assay: Antifeedant activity against Spodoptera littoralis using glass-fibre disks at 100 ppm measured after 18 hr by binary choice feeding bioassay relative to control
Type: functional

## C[C@@H]1C[C@@H](O)[C@@]23COC(=O)C2=CCC[C@@H]3[C@@]12C[C@@H](c1ccoc1)OC2=O [6BETA-HYDROXYTEUSCORDIN]
  AFI: 73.1%

## C[C@@H]1C[C@@H](O)[C@@]2(CO)C(CO)=C[C@@H](O)C[C@@H]2[C@@]12C[C@@H](c1ccoc1)OC2=O [19-DEACETYLTEUSCORODOL]
  AFI: -54.5%

## CC(=O)OC[C@@]12CCC[C@@H]3[C@@]4(C[C@@H](c5ccoc5)OC4=O)[C@H](C)C[C@@H](OC(C)=O)[C@]31CO2 [DIACETYLMONTANIN D]
  AFI: 34.6%

## C[C@@H]1C[C@@H](O)[C@@]23COC(=O)C2C[C@@H](O)C[C@@H]3[C@@]12C[C@@H](c1ccoc1)OC2=O (some centres undefined) [DIHYDROTEUGIN]
  AFI: -1.2%

## C[C@@H]1C[C@@H]2OC(=O)C3=C2[C@H](CC[C@@H]3O)[C@@]12C[C@@H](c1ccoc1)OC2=O [ISOTEUFLIFIN]
  AFI: 11%

## C[C@@H]1C[C@@H](O)[C@@]23CO[C@]2(CO)CCC[C@@H]3[C@@]12C[C@@H](c1ccoc1)OC2=O [MONTANIN D]
  AFI: 82.1%

## C[C@@H]1C[C@@H]2OC(=O)C3=C2[C@H](CCC3)[C@@]12C[C@@H](c1ccoc1)OC2=O [TEUCVIN]
  AFI: 52.2%

## C[C@@H]1C[C@@H](O)[C@@]23COC(=O)C2=C[C@@H](O)C[C@@H]3[C@@]12C[C@@H](c1ccoc1)OC2=O [TEUGIN]
  AFI: 11.1%

## C[C@@H]1CC(=O)[C@@]23COC(=O)C2=CCC[C@@H]3[C@@]12C[C@@H](c1ccoc1)OC2=O [TEUSCORDINON]
  AFI: 55.7%
